{"source": "patent US12285450B2", "about": "“Lactiplantibacillus plantarum effectively inhibiting multi-drug-resistant Klebsiella pneumoniae and use thereof” (priority 2023, dated 2025)", "test_system": "Klebsiella pneumoniae ZFM4", "experiment": "Antibiotic resistance of ZFM4 by disk diffusion method", "type": "cell-based", "settings": "for antibiotic resistance of ZFM4 (in words): disk diffusion method", "method": "The antibiotic susceptibility test disk was purchased from Hangzhou Microbial Reagent Co., Ltd., including amoxicillin, cefuroxime, gentamycin, erythromycin, vancomycin, tetracycline, penicillin, ciprofloxacin, streptomycin, and chloramphenicol.\nThe antibiotic resistance of Klebsiella pneumoniae ZFM4 was evaluated by disk diffusion method. 100 μL of the second-generation bacterial culture of Klebsiella pneumoniae ZFM4 was coated on LB solid medium and the antibiotic susceptibility test disk was placed on the plate. After aerobically incubation at 37° C. for 48 hrs, the diameter of the inhibition zone was measured. […] That is, Klebsiella pneumoniae ZFM4 had multiple drug resistance.", "note": "Where two headings read alike, the source gives them in different places.", "data": [{"molecule": "O=C(N[C@H](CO)[C@H](O)c1ccc([N+](=O)[O-])cc1)C(Cl)Cl", "note": "[Chloramphenicol]", "values": [{"measurement": "zone of inhibition at 30 µg/disc", "setting": "Klebsiella pneumoniae, ZFM4, Chloramphenicol disk 30 μg/tablet, 37° C., 48 hrs, read-out: Drug resistance evaluation result", "value": "< 12", "unit": "mm"}, {"measurement": "antibiotic resistance of ZFM4 (in words)", "value": "resistant"}]}, {"molecule": "Penicillin", "values": [{"measurement": "Drug resistance evaluation result", "setting": "Penicillin disk 10 μg/tablet, 37° C., 48 hrs", "value": "R (≤14)"}, {"measurement": "antibiotic resistance of ZFM4 (in words)", "value": "resistant"}]}, {"molecule": "CN(C)[C@@H]1C(O)=C(C(N)=O)C(=O)[C@@]2(O)C(O)=C3C(=O)c4c(O)cccc4[C@@](C)(O)[C@H]3C[C@@H]12", "note": "[Tetracycline]", "values": [{"measurement": "zone of inhibition at 30 µg/disc", "setting": "Klebsiella pneumoniae, ZFM4, Tetracycline disk 30 μg/tablet, 37° C., 48 hrs, read-out: Drug resistance evaluation result", "value": "> 15", "unit": "mm"}]}, {"molecule": "CN[C@H](CC(C)C)C(=O)N[C@H]1C(=O)N[C@@H](CC(N)=O)C(=O)N[C@H]2C(=O)N[C@H]3C(=O)N[C@H](C(=O)N[C@H](C(=O)O)c4cc(O)cc(O)c4-c4cc3ccc4O)[C@H](O)c3ccc(c(Cl)c3)Oc3cc2cc(c3O[C@@H]2O[C@H](CO)[C@@H](O)[C@H](O)[C@H]2O[C@H]2C[C@](C)(N)[C@H](O)[C@H](C)O2)Oc2ccc(cc2Cl)[C@H]1O", "note": "[Vancomycin]", "values": [{"measurement": "zone of inhibition at 30 µg/disc", "setting": "Klebsiella pneumoniae, ZFM4, 48 h, read-out: Drug resistance evaluation result", "value": "< 14", "unit": "mm"}, {"measurement": "antibiotic resistance of ZFM4 (in words)", "value": "resistant"}]}, {"molecule": "[H]/N=C(/N)N[C@H]1[C@H](O)[C@@H](O)[C@H](O[C@@H]2O[C@@H](C)[C@](O)(C=O)[C@H]2O[C@@H]2O[C@@H](CO)[C@H](O)[C@@H](O)[C@@H]2NC)[C@@H](N/C(N)=N\\[H])[C@@H]1O", "note": "[Streptomycin]", "values": [{"measurement": "zone of inhibition at 10 µg/disc", "setting": "Klebsiella pneumoniae, ZFM4, Streptomycin disk 10 μg/tablet, 37° C., 48 hrs, read-out: Drug resistance evaluation result", "value": "11 to 15", "unit": "mm"}, {"measurement": "antibiotic resistance of ZFM4 (in words)", "value": "moderately resistant"}]}, {"molecule": "Gentamicin", "values": [{"measurement": "Drug resistance evaluation result", "setting": "Gentamicin disk 10 μg/tablet, 37° C., 48 hrs", "value": "R (≤12)"}, {"measurement": "antibiotic resistance of ZFM4 (in words)", "value": "resistant"}]}, {"molecule": "O=C(O)c1cn(C2CC2)c2cc(N3CCNCC3)c(F)cc2c1=O", "note": "[Ciprofloxacin]", "values": [{"measurement": "zone of inhibition at 5 µg/disc", "setting": "Klebsiella pneumoniae, ZFM4, Ciprofloxacin disk 5 μg/tablet, 37° C., 48 hrs, read-out: Drug resistance evaluation result", "value": "15 to 21", "unit": "mm"}, {"measurement": "antibiotic resistance of ZFM4 (in words)", "value": "moderately resistant"}]}, {"molecule": "CC[C@H]1OC(=O)[C@H](C)[C@@H](O[C@H]2C[C@@](C)(OC)[C@@H](O)[C@H](C)O2)[C@H](C)[C@@H](O[C@@H]2O[C@H](C)C[C@H](N(C)C)[C@H]2O)[C@](C)(O)C[C@@H](C)C(=O)[C@H](C)[C@@H](O)[C@]1(C)O", "note": "[Erythromycin]", "values": [{"measurement": "zone of inhibition at 15 µg/disc", "setting": "Klebsiella pneumoniae, ZFM4, Erythromycin disk 15 μg/tablet, 37° C., 48 hrs, read-out: Drug resistance evaluation result", "value": "< 13", "unit": "mm"}, {"measurement": "antibiotic resistance of ZFM4 (in words)", "value": "resistant"}]}, {"molecule": "CC1(C)S[C@@H]2[C@H](NC(=O)[C@H](N)c3ccc(O)cc3)C(=O)N2[C@H]1C(=O)O", "note": "[Amoxicillin]", "values": [{"measurement": "zone of inhibition at 25 µg/disc", "setting": "Klebsiella pneumoniae, ZFM4, Amoxicillin disk 25 μg/tablet, 37° C., 48 hrs, read-out: Drug resistance evaluation result", "value": "< 13", "unit": "mm"}, {"measurement": "antibiotic resistance of ZFM4 (in words)", "value": "resistant"}]}, {"molecule": "CO/N=C(\\C(=O)N[C@@H]1C(=O)N2C(C(=O)O)=C(COC(N)=O)CS[C@H]12)c1ccco1", "note": "[Cefuroxime]", "values": [{"measurement": "zone of inhibition at 30 µg/disc", "setting": "Klebsiella pneumoniae, ZFM4, Cefuroxime disk 30 μg/tablet, 37° C., 48 hrs, read-out: Drug resistance evaluation result", "value": "< 10", "unit": "mm"}, {"measurement": "antibiotic resistance of ZFM4 (in words)", "value": "resistant"}]}]}
